Measurements taken from publication PMC5635289, “Differential Effects of Angelicin Analogues on NF-κB Activity and IL-8 Gene Expression in Cystic Fibrosis IB3-1 Cells” (Mediators of Inflammation, 2017).

Assays:
IL-8 mRNA = assay: RT-qPCR quantification of IL-8 mRNA in TNF-α-induced IB3-1 cells; type: cell-based, human; conditions: for inhibition at 10 µM / inhibition at 1 µM: Homo sapiens, IB3-1, 24 h, TNF-α-induced IB3-1 cells, RT-qPCR, na = not active at the used concentrations; for inhibition at 10 µM: 10 μM compound; for inhibition at 1 µM: 1 μM compound; for Inhibition of IL-8 expression (range given): IB3-1 cells, low concentrations (1–10 μM), concentration not specified per value
Experimental: Monolayers of 60% confluent IB3-1 cells were seeded in 6- or 12-well plates in LHC-8 medium in the presence of 5% FBS. After 24 h, pure derivatives were added, 5 h before stimulation with TNF-α 80 ng/ml (ORF Genetics, Kopavogur, Iceland), and incubated for a further 24 h. Total RNA was extracted using TRIzol Reagent (Sigma-Aldrich, St. Louis, MO) following the manufacturer's instructions. Reverse transcription (RT) was performed using Reverse Transcription System kit (Promega, Madison, WI): 1 μg of total RNA was reverse transcribed in the presence of 5 mM MgCl2, 1X reverse transcription buffer (10 mM Tris-HCl, 50 mM KCl, and 0.1% Triton X-100), 1 mM each dNTPs, 20 U recombinant Rnasin Ribonuclease Inhibitor, 15 U AMV Reverse Transcriptase, and 0.5 μg oligo(dT)15 primers in a total volume of 20 μl for 10 min at 70°C and 60 min at 42°C. The resulting cDNA was quantified by relative quantitative real-time PCR (real-time qPCR). For real-time qPCR, 1 μl of cDNA was used for each SYBR Green reaction to quantify the relative expression of IL-8. Each 25 μl of total reaction volume contained 1 μl of cDNA, 10 pmol of primers, 1 iQTM SYBR Green Supermix (Bio-Rad Laboratories Inc., Hercules, CA). Real-time PCRs were performed for a total of 40 cycles (denaturation, 95°C for 10 s; annealing, 68°C for 30 s for IL-8, 65°C for 30 s for IL-6; elongation, 72°C for 60 s) using an iCycler IQ5 (Bio-Rad Laboratories Inc., Hercules, CA). Primer sequences were as follows: IL-8 forward: 5′-GTGCAGTTTTGCCAAGGAGT-3′ and IL-8 reverse: 5′-TTATGAATTCTCAGCCCTCTTCAAAAACTTCTC-3′. The relative proportions of each amplified template were determined utilizing the threshold cycle (CT) value for each performed PCR. The DDCt method was used to compare gene expression data. Each sample was quantified in duplicate. Changes in mRNA expression level were calculated following normalization with the GAPDH calibrator gene (housekeeping gene) and expressed as fold change over untreated samples [24]. Duplicates of negative controls (no template cDNA) were also run with every experimental plate to assess specificity and indicate potential contamination.
With the aim to study the effective anti-inflammatory properties of these new psoralen derivatives, we decided to further characterize the TMA derivatives for their potential activities on the expression of IL-8 gene, known to be involved in the lung inflammatory process in CF. […] More specifically, we were first interested in identifying compounds with low antiproliferative activity, but effective in downmodulating inflammatory gene expression without achieving a full suppression of these genes. We therefore employed IB3-1 cystic fibrosis cells, incubated for 5 h with two concentrations (1 μM and 10 μM) of selected compounds, and then treated with TNF-α ([…]). In the IB3-1 cystic fibrosis cellular model, NF-κB-dependent genes, including the gene encoding for the proinflammatory protein IL-8, generally are activated following infection with P. aeruginosa or treatment with TNF-α or IL-1β [26, 28, 31]. This feature is very important in the pathophysiology of CF, since several clinical complications are caused by exacerbation of this inflammatory response. After 1 day of incubation, cellular RNA was isolated for RT-qPCR analysis. All the TMA analogues found to be active in inhibiting NF-κB/DNA interactions were analyzed for their effects on inhibition of TNF-α-induced accumulation of IL-8 mRNA.

NF-κB p50 [1] = target: T1, NF-κB p50 (Homo sapiens, UniProt P19838); assay: EMSA, inhibition of NF-κB/DNA interactions; type: binding; conditions: for Inhibition of NF-κB/DNA complex (MIC): NF-κB p50 and 32P-labeled NF-κB oligonucleotide, MIC = minimal inhibitory concentration, 12.5 μM was the lowest concentration used
T1 construct: This assay was performed using purified NF-κB p50; purchased Promega
T1 sequence (P19838 1-433 limits assumed): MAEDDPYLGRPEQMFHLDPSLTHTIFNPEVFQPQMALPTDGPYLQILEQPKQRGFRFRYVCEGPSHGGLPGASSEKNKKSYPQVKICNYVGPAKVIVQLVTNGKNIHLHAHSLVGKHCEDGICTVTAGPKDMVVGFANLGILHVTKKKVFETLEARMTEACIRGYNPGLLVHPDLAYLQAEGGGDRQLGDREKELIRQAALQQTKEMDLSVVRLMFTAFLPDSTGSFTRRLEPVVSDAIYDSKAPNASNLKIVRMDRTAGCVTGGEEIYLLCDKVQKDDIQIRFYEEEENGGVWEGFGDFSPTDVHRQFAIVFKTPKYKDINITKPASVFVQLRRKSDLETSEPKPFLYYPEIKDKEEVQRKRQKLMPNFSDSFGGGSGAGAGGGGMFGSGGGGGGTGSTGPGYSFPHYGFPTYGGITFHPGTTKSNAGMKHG
Experimental: Electrophoretic mobility shift assays were performed using double-stranded ^32P-labeled oligonucleotides as target DNA. Binding reactions were set up as previously described in binding buffer (10% glycerol, 0.05% NP-40, 10 mM Tris-HCl pH 7.5, 50 mM NaCl, 0.5 mM DTT, and 10 mM MgCl2), in the presence of 0.1 μl/20 μl of NF-κB p50 (50 gsu) (Promega, Madison, WI, USA) and 0.25 ng of labeled oligonucleotide, in a total volume of 20 μl. After 30 min binding at room temperature, samples were electrophoresed at constant voltage (200 V for 30 min) through a low ionic strength (0.25 TBE buffer) (1 TBE/40.089 M Tris-borate, 0.002 M EDTA) on 6% polyacrylamide gels until the tracking dye (bromophenol blue) reached the bottom of a 16 cm slab. Gels were dried and exposed for autoradiography with intensifying screens at […]. In these experiments, DNA/protein complexes migrate through the gel with slower efficiency. In studies on the inhibitors of protein/DNA interactions, addition of the reagents was as follows: (i) nuclear factors, (ii) active principles, (iii) binding buffer, and (iv) labeled oligonucleotides mimicking the binding sites for TF to be modulated. The nucleotide sequence of double-stranded target DNA utilized in these experiments was 5′-CGC TGG GGA CTT TCC ACG G-3′ (sense strand, NF-κB). The synthetic oligonucleotides utilized in this study were purchased from Sigma Genosys (Sigma Genosys, Cambs, UK). To calculate the effective concentrations, three different autoradiograms obtained from different time exposures were scanned and compared to control EMSA performed without addition of angelicin analogues (two independent experiments were performed).
The effects of TMA derivatives on NF-κB- (nuclear factor-kappaB-) mediated induction of proinflammatory genes was verified first in vitro by electrophoretic mobility shift assay (EMSA) with the aim to verify and quantify the possible inhibition of NF-κB/DNA interactions. This assay was performed using purified NF-κB p50 and ^32P-labeled target NF-κB double-stranded oligonucleotide mimicking the NF-κB consensus sequence present within the IL-8 gene promoter.

IB3-1 cells = assay: Cell proliferation assay on IB3-1 cells; type: cell-based; conditions: Homo sapiens, cell number/ml after 48 h of treatment
Experimental: Monolayers of 60% confluent IB3-1 cells were seeded in 24- or 12-well plates in LHC-8 medium in the presence of 5% FBS. After 24 h, TMA derivatives were added at serial dilutions and incubated for further 2-3 days. The effects of compounds (TMA derivatives) on the cell proliferation were analyzed as elsewhere described. A first analysis was performed with serial dilutions to obtain 50 μM, 200 μM, and 800 μM solutions. In order to determine IC50 values, the following concentrations were used 12.5, 25, 50, 100, 200, and 800 μM. In order to prepare the cells for counting, they were washed with PBS 1X and detached with trypsin/EDTA. Cells were suspended in physiological solution and counted with a Z2 Coulter Counter (Coulter Electronics, Hialeah, FL, USA). The cell number/ml was determined as IC50 after 2 days of culture, when untreated cells are in log phase of cell growth.
In order to obtain preliminary information on the biological properties of TMA derivatives, their effects on cell growth were examined on IB3-1 cell line, excellent biological model to study new potential anti-inflammatory molecules. The use of this cell line to study the expression of proinflammatory molecules under a variety of stimuli is well established. Monolayers of 60% confluent IB3-1 cells were seeded in 12-well plate in LHC-8 medium with 5% FBS. After 24 h, compounds were added at different concentrations and the cell number/ml was determined after further 48 h of culture.

NF-κB p50 [2] = target: T1, NF-κB p50; set-up: method as in PMID 21148790; conditions: previous studies; cited from earlier work

| SMILES | Inhibition of NF-κB/DNA complex (MIC) (NF-κB p50 [1]) | Effect on NF-κB/DNA interactions at 100 μM (NF-κB p50 [1]; 100 μM compound) | inhibition at 10 µM (IL-8 mRNA) [%] | IC50 (IB3-1 cells) [µM] | inhibition at 1 µM (IL-8 mRNA) [%] | Inhibition of IL-8 expression (range given) (IL-8 mRNA) | Concentration inhibiting NF-κB/DNA interactions in EMSA (NF-κB p50 [2]) [µM] |
| --- | --- | --- | --- | --- | --- | --- | --- |
| Cc1coc2c1c1occ(C)c1c1oc(=O)cc(C)c21 [Compound 29] | <12.5 (^∗) μM | – | 12 | > 800 | – | – | – |
| Cc1cc2c(o1)c1cc(C)oc1c1c(C)cc(=O)oc21 [Compound 30] | 12.5 to 25 µM | – | – | > 800 | 10 | – | – |
| Cc1cc2c(C)cc3oc(=O)cc(C)c3c2o1 [Compound 33] | 12.5 to 25 µM | – | 67 | > 800 | 66 | 52–83% | – |
| Cc1cc2c(C)cc(=O)oc2c2c1OCC=C2 [Compound 35] | 25 to 50 µM | – | 37 | 137 | 56 | – | – |
| Cc1cc2oc(=O)cc(C)c2c2c1C=CCO2 [Compound 36] | 12.5 to 25 µM | – | 74 | > 800 | 77 | – | – |
| C=CCc1c(O)c(C)cc2c(CO)cc(=O)oc12 [Compound 38] | 25 µM | – | 81 | 506 | 36 | 52–83% | – |

Continued, in another order:

| Inhibition of NF-κB/DNA complex (MIC) (NF-κB p50 [1]) | Effect on NF-κB/DNA interactions at 100 μM (NF-κB p50 [1]; 100 μM compound) | SMILES | inhibition at 10 µM (IL-8 mRNA) [%] | IC50 (IB3-1 cells) [µM] | inhibition at 1 µM (IL-8 mRNA) [%] | Inhibition of IL-8 expression (range given) (IL-8 mRNA) | Concentration inhibiting NF-κB/DNA interactions in EMSA (NF-κB p50 [2]) [µM] |
| --- | --- | --- | --- | --- | --- | --- | --- |
| <12.5 (^∗) μM | – | Cc1coc2c1c(C)cc1oc(=O)cc(C)c12 [Compound 32] | 52 | > 800 | 73 | – | – |
| <12.5 (^∗) μM | – | Cc1oc2c(c(C)cc3oc(=O)cc(C)c32)c1C [Compound 34] | 47 | > 800 | 68 | – | – |
| higher than 20 μM | able to suppress NF-κB/DNA interactions | Cc1cc(=O)oc2c1cc(C)c1occ(C)c12 [TMA, 4,6,4′-trimethylangelicin, reference compound] | – | 185 ± 30 | – | – | 100 |
